From patent publication US6420119B1, “Methods of diagnosing and treating urinary incontinence relating to collagen proteolysis in pelvic supporting tissue” (The Board of Trustees of the Leland Stanford Jr. University, priority 1999, dated 2002)
Where a name gives a salt, the structure may show the parent alone.

Key:
procollagenase [1] = conditions: pregnant guinea pig cervix; cited from earlier work
procollagenase [2] = conditions: cultured rabbit uterine cervical fibroblasts; cited from earlier work
TIMPs = conditions: cultured rabbit uterine cervical fibroblasts; cited from earlier work
collagenase = conditions: human cervix, intravenous; cited from earlier work
[3] = patients with advanced lung carcinoma; relative to levels required for MMP inhibition in vitro; cited from earlier work
[4] = tested on: matrix metalloproteinases; conditions: human endometrium during the menstrual cycle; cited from earlier work
TIMP-1 = TIMP-1 mRNA expression in cultured human endometrial stromal cells; assay type: cell-based; conditions: vs control cells
Source text: (§1) (a) GnRH Agonist: Trophoblast invasion is regulated in part by MMP-9 which can be inhibited by both TIMP-1 and TIMP-3 (25). […] Moreover, the expression of TIMP-1 appeared to be affected to a much greater extent than that of TIMP-3 (26).
(§2) Our laboratory has examined the ability of IL-1β and transforming growth factor-β (TGF-13) to regulate MMP-9, TIMP-1, and TIMP-3 mRNA expression in cultured human endometrial stromal cells (28). In these cultured endometrial stromal cells, TIMP-1 and TIMP-3 but not MMP-9 mRNA were expressed.

TIMP-3 = TIMP-3 mRNA expression in cultured human endometrial stromal cells; assay type: cell-based; conditions: vs control cells
Source text: as §1, §2

MMP-9 = MMP-9 mRNA expression in cultured human endometrial stromal cells; assay type: cell-based
Source text: as §2

Compound	levels of procollagenase in the culture medium (procollagenase [2])	level of TIMPs in the culture media (TIMPs)	TIMP-1 mRNA expression (TIMP-1)	TIMP-3 mRNA expression (TIMP-3)	other results
C[C@]12CC[C@@H]3c4ccc(O)cc4CC[C@H]3[C@@H]1CC[C@@H]2O [17β-estradiol]	declined	increased	–	–	procollagenase activity (procollagenase [1]): doubled
C[C@]12CC[C@H](OS(=O)(=O)O)CC1=CC[C@@H]1[C@@H]2CC[C@]2(C)C(=O)CC[C@@H]12 [DHEAS, dehydroepiandosterone sulfate]	–	–	–	–	increase in collagenase activity (collagenase): over 150%
CNC(=O)[C@@H](NC(=O)[C@H](CC(C)C)[C@H](O)C(=O)NO)C(C)(C)C [Marimastat]	–	–	–	–	plasma levels [3]: substantially higher than those required for MMP inhibition in vitro
CC(=O)[C@H]1CC[C@H]2[C@@H]3CCC4=CC(=O)CC[C@]4(C)[C@H]3CC[C@]12C [progesterone]	declined	increased	–	–	gene expression of matrix metalloproteinases [4]: repressed
IL-1β: cytokine	–	–	decrease	decrease	MMP-9 expression (MMP-9): stimulation; procollagenase production (procollagenase [1]): two-fold increase
TGF-β	–	–	augmented	augmented	–
